Data set [1] concerns Bacillus pumilus. Kind of data set: Antimicrobial activity against Bacillus pumilus at 50 ug/mL. The settings on record: read-out: IZ. The data set is classed as functional.
Data set [2] deals with Bacillus subtilis. Kind of data set: Antimicrobial activity against Bacillus subtilis at 50 ug/mL. The data set is classed as functional. The note with it: read-out: IZ.
The test system of data set [3] is Escherichia coli. Kind of data set: Antimicrobial activity against Escherichia coli at 50 ug/mL. In kind it is functional. The settings on record: read-out: IZ.
Data set [4] concerns Rattus norvegicus. The data set is described as follows: Inhibition of inflammation in rat carrageenan-induced rat acute paw edema model. The data set is classed as functional. Background: In the carrageenan paw model, swelling and tenderness develop within hours.
The subject of data set [5] is Staphylococcus aureus. The data set is described as follows: Antimicrobial activity against Staphylococcus aureus by cup-plate agar diffusion method. In kind it is functional. On the technique in general: In agar diffusion tests the substance spreads into inoculated agar from a disc or well.
Data set [6] is described as follows: Antioxidant activity assessed as […] free radical scavenging activity. The data set is classed as physicochemical.
For data set [7], the system named is MDA-MB-231. Kind of data set: Anticancer activity against human MDA-MB-231 cells. In kind it is functional, cell-based.
Data set [8] deals with Leishmania major. The data set is described as follows: Antiprotozoal activity against Leishmania major promastigote forms. The data set is classed as functional, organism-based.
Data set [9] has as its system Plasmodium falciparum. Kind of data set: Antimalarial activity against CQ-resistant Plasmodium falciparum W2. In kind it is functional, organism-based.
Data set [10] in a line: Anticancer activity against human HSC3 cells. The note with it: HSC-3. The data set is classed as functional, cell-based.
Data set [11] relates to Plasmodium falciparum. Kind of data set: Antimalarial activity against Plasmodium falciparum K1. The data set is classed as functional, organism-based.
Data set [12] relates to Bacillus. The data set is described as follows: Antimicrobial activity against Bacillus coccus by cup-plate agar diffusion method. The data set is classed as functional.
Data set [13] concerns Aspergillus niger. The data set is described as follows: Antimicrobial activity against Aspergillus niger by cup-plate agar diffusion method. The data set is classed as functional.
Data set [14] concerns Aspergillus niger. Kind of data set: Antimicrobial activity against Aspergillus niger at 50 ug/mL. The data set is classed as functional. The note with it: read-out: IZ.
Data set [15] has as its system Rattus norvegicus. Kind of data set: Inhibition of inflammation in rat carrageenan-induced rat hind paw edema model. The data set is classed as functional.
The subject of data set [16] is Plasmodium falciparum. The data set is described as follows: Antimalarial activity against Plasmodium falciparum asexual blood stage forms. The data set is classed as functional, organism-based.
For data set [17], the species on record is Rattus norvegicus. The data set is described as follows: Inhibition of inflammation in rat cotton pellet-induced granuloma model. In kind it is functional.
In data set [18] the test system is Klebsiella aerogenes. Kind of data set: Antimicrobial activity against Enterobacter aerogenes by cup-plate agar diffusion method. The data set is classed as functional.
Data set [19] has as its system Staphylococcus aureus. The data set is described as follows: Antimicrobial activity against Staphylococcus aureus. The data set is classed as functional.
In data set [20] the test system is Candida albicans. The data set is described as follows: Antimicrobial activity against Candida albicans. In kind it is functional.
The test system of data set [21] is Escherichia coli. Kind of data set: Antimicrobial activity against Escherichia coli. In kind it is functional.
For data set [22], the system named is Penicillium chrysogenum. The data set is described as follows: Antimicrobial activity against Penicillium chrysogenum. In kind it is functional.
Data set [23] deals with Bacillus subtilis. Kind of data set: Antimicrobial activity against Bacillus subtilis. The data set is classed as functional.
The test system of data set [24] is Staphylococcus epidermidis. The data set is described as follows: Antimicrobial activity against Staphylococcus epidermidis. The data set is classed as functional.
The test system of data set [25] is Micrococcus luteus. Kind of data set: Antimicrobial activity against Micrococcus luteus. In kind it is functional.

The record followed here is ChEMBL document CHEMBL3352019, “Recent developments in biological activities of chalcones: a mini review” (Eur J Med Chem, 2014).

In brackets after ≈: the same amount, converted by molar mass.

Broadly, the IC50 is the concentration that inhibits the measured activity by half. A higher IC50 goes with a need for much substance. Broadly, the MIC is the least concentration at which growth counts as inhibited.

Take `COc1ccc(/C=C/C(=O)c2ccc(Cl)cc2Cl)cc1`: the figures for the zone of inhibition at 50 µg/mL in data set [1], in [2] and in data set [3] were 8 mm, 13 mm and 15 mm, respectively.
As to `Cc1nc2ccc(Cl)cc2c(-c2ccccc2)c1C(=O)/C=C/c1ccco1`, in [4], the “inhibition (INH)” value is given as 81.78%.
Consider `O=C(/C=C/c1c(-c2ccc(Br)cc2)nc2ccccn12)c1ccc(Cl)cc1`, for which the “inhibition zone (IZ)” value in data set [5] is on record as 19 mm.
Turning to `C=CCc1ccc(/C=C/C(=O)c2cc(C)ccc2O)cc1O`, in [6], the “inhibition (INH)” value was found to be 89.64%.
In data set [7], `O=C(/C=C/c1cccc(Br)c1)C1=Cc2cc(Cl)ccc2OC1` displayed a 50% inhibitory concentration (IC50) of 7.02 µM.
The compound `COc1ccc2c(c1)C=C(/C=C/C(=O)c1ccc(Cl)c(Cl)c1)CO2` gave an IC50 in data set [8] (Leishmania major) of less than 1 µM.
As for `COc1ccc(/C=C/C(=O)c2ccccc2)cc1S(=O)(=O)N1CCOCC1`, it took 2.06 µM to reach half-maximal inhibition in data set [9] (IC50).
In [10], `COc1cc(O)c(C(=O)/C=C/c2ccccc2)c(OC)c1` [FLAVOKAWAIN B] gave a concentration for half-maximal inhibition (IC50) of 4.9 µg/mL (≈ 17.2 µM).
As to `COc1ccc(/C=C/C(=O)c2c(O)cccc2O)cc1`, the IC50 in data set [11] was 7.4 µM.
As to `Cc1ccc(C(=O)/C=C/c2c(-c3ccc(Br)cc3)nc3ccccn23)c(O)c1`, the “inhibition zone (IZ)” value in data set [12] was found to be 19 mm; in data set [13], 20 mm.
For `O=C(/C=C/c1cccc2ccccc12)c1ccc(Cl)cc1Cl`, in data set [14], the zone of inhibition at 50 µg/mL amounted to 12 mm.
Regarding `O=C(/C=C/c1ccccc1)c1nn(-c2ccccc2)c(-c2ccccc2)c1S(=O)(=O)c1ccccc1`, the “inhibition (INH)” value in data set [15] is 83.77%.
`C=CC(C)(C)c1cc(/C=C/C(=O)c2ccc(O)cc2)c(OC)cc1O` [LICOAGROCHACONE A] yielded an IC50 in data set [16] of 1.43 µg/mL (≈ 4.23 µM).
For the compound `O=C(/C=C/c1ccc(F)cc1)c1ccc(O)cc1`, the “inhibition (INH)” value in [17] is listed as 36.8%.
For `COc1ccc2c(c1)C=C(C(=O)/C=C/c1ccc(Cl)c(Cl)c1)CO2`, the IC50 in data set [8] (Leishmania major) was less than 1 µM.
Compound MEGLUMINE ANTIMONATE displayed an IC50 in data set [8] of less than 82 µM.
Consider `COc1ccc(C(=O)/C=C/c2c(-c3ccc(Br)cc3)nc3ccccn23)cc1`, for which the “inhibition zone (IZ)” value in [18] came out at 19 mm.
In turn, `O=C(/C=C/c1ccc(O)cc1)c1ccc(O)cc1O` [ISOLIQUIRITIGENIN] yielded an MIC in data set [19] of 15.6 µg/mL (≈ 60.9 µM).
With `O=C(/C=C/c1ccccc1)N1N=C(c2ccc(Cl)cc2)CC1c1c2ccccc2cc2ccccc12` (centres undefined), the “inhibition zone (IZ)” value in [20] amounted to 12 mm; in [21], 22 mm.
For the compound `C[C@]12CC[C@H]3[C@@H](CC=C4CC(O)CC[C@@]43C)[C@@H]1CC[C@@H]2C(=O)/C=C/c1ccccc1` (some centres undefined), the “inhibition zone (IZ)” value came out at 10 mm in data set [22] and 19 mm in data set [23].
For the compound `COc1ccc(/C=C/C(=O)c2ccc(-n3cnc4ccccc43)cc2)c(OC)c1`, half-maximal inhibition in [16] (IC50) was put at 1.1 µg/mL (≈ 2.86 µM).
Turning to `COc1ccc(/C=C/C(=O)c2ccc(OC)c(CC=C(C)C)c2O)cc1`, the MIC in data set [23] (Bacillus subtilis), in data set [24] and in data set [25] was 2000 µg/mL (≈ 5670 µM) each time.
